Common to all, as to format: physicochemical
The nature of data set [1]: xanthommatin solubility in water-based polyurethane. The conditions noted are these: pigment added as suspension in water or solution in MES buffer; Rust-Oleum 6711; judged by absence of solid after centrifugation. As for the experimental part: Evaluation of xanthommatin solubility in water-based polyurethane: Two quantities of solid xanthommatin, corresponding to either 0.2 or 1.6 mg of xanthommatin, were dissolved or dispersed in 0.3 mL of MES buffer (0.1 M, pH 5.5) or deionized water, and added to 0.27 g fractions of water-based polyurethane paint (Rust-Oleum 6711). Pigment-free samples were prepared as controls. After mixing, these samples were centrifuged (15,000 g, 5 minutes), and imaged using a camera (FIG. 1D).

The nature of data set [2]: solubility of xanthommatin in carrier liquids (water, MES buffer). Conditions: oxidized xanthommatin.
A short description of data set [3]: pH-dependent xanthommatin solubility in water. The conditions noted are these: solid pigment suspended in acidic to alkaline water (pH 2-12), agitation, then centrifugation. The procedure:
Evaluation of pH-dependent xanthommatin solubility: Fractions of solid xanthommatin corresponding to 1 mg of starting material were dispersed in 1 mL of filtered water adjusted to pH 2.01, 4.00, 6.00, 7.00, 8.01, 10.01, or 12.00. Samples were mixed by pipetting, centrifuged at 15,000 g for 5 minutes, and imaged with a camera to record the mass of undissolved material (FIG. 1C, top panel). Each sample was then diluted to 1.5 mL with water adjusted to its respective pH, mixed by vortexing, sonicated for 5 minutes, centrifuged at 15,000 g for 5 minutes, and imaged again (FIG. 1C, bottom panel).

Each structure is given as a SMILES string.

On to `NC(CC(=O)c1cccc2oc3cc(=O)c4[nH]c(C(=O)O)cc(=O)c4c-3nc12)C(=O)O` (centres unmarked) [xanthommatin, 11-(3-amino-3-carboxypropanoyl)-1,5-dioxo-4H-pyrido[3,2-a]phenoxazine-3-carboxylic acid], for which the “solubility in water-based polyurethane paint base” value in data set [1] was “fully soluble”. In addition, the “solubility in MES buffer (carrier liquid)” value in data set [2] (MES buffer) is given as “fully soluble”. Also, the “solubility in water (carrier liquid)” value in data set [2] (water) was “only slightly soluble”. Besides, the “solubility in water, acidic conditions” value in data set [3] (acidic conditions) was “sparingly soluble/insoluble”. Further, in data set [3] (basic conditions), the “solubility in water, basic conditions” value is given as “most soluble”.

For the origin of these results see patent US20250320362A1, “Suspensions and Solutions of Dyes For Colored Coatings” (Northeastern University, priority 2022, published 2025).
